# Legend:
# Experiment in all cases: Test E preemergence
# Type in all cases: in vivo
# Conditions in all cases: scale 0 to 100
# [1] = system: surinam grass (Brachiaria decumbens)
# Procedure, shortened: (§1)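 Seeds planted in silt loam were treated preemergence, and plants in Redi-Earth peat medium at 2 to 18 cm (1- to 4-leaf) were treated postemergence, with test chemicals in non-phytotoxic solvent with surfactant. Plants kept in greenhouse 14 to 21 d, then visually rated against controls on a 0–100 scale (0 no effect, 100 complete control).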
# [2] = system: sandbur (southern sandbur, Cenchrus echinatus)
# Procedure, shortened: as §1
# [3] = system: ragweed (common ragweed, Ambrosia elatior)
# Procedure, shortened: as §1
# [4] = system: lambsquarters (Chenopodium album)
# Procedure, shortened: as §1
# [5] = system: pigweed, palmer (palmer pigweed, Amaranthus palmeri)
# Procedure, shortened: as §1
# [6] = system: soybean (Glycine max)
# Procedure, shortened: as §1
# [7] = system: horseweed (Conyza canadensis)
# Procedure, shortened: as §1
# [8] = system: velvetleaf (Abutilon theophrasti)
# Procedure, shortened: as §1
# [9] = system: corn (Zea mays)
# Procedure, shortened: as §1
# [10] = system: Kochia (Kochia scoparia)
# Procedure, shortened: as §1
# [11] = system: dayflower, VA (Virginia dayflower, Commelina virginica)
# Procedure, shortened: as §1
# [12] = system: foxtail, green (green foxtail, Setaria viridis)
# Procedure, shortened: as §1
# [13] = system: barnyardgrass (Echinochloa crus-galli)
# Procedure, shortened: as §1
# [14] = system: crabgrass, large (large crabgrass, Digitaria sangumnalis)
# Procedure, shortened: as §1
# [15] = system: crabgrass, Brazil (Brazilian crabgrass, Digitaria horizontalis)
# Procedure, shortened: as §1
# [16] = system: waterhemp (common waterhemp, Amaranthus rudis)
# Procedure, shortened: as §1
# [17] = system: goosegrass (Eleusine indica)
# Procedure, shortened: as §1
# [18] = system: ryegrass, Italian (Italian ryegrass, Lolium multiflorum)
# Procedure, shortened: as §1
# [19] = system: field bindweed (Convolvulus arvensis)
# Procedure, shortened: as §1
# [20] = system: Panicum, fall (fall Panicum, Panicum dichotomiflorum)
# Procedure, shortened: as §1
# [21] = system: arrowleaf Sida (Sida rhombifolia)
# Procedure, shortened: as §1
smiles,measurement,setting,value
CN1CC(c2cccc(C(F)(F)F)c2)C(C(=O)Nc2cccc(F)c2F)C1=O (stereo not shown) [Compound 636],Plant response rating: Surinam Grass,[1]; 31 g ai/ha,40
same,Plant response rating: Surinam Grass,[1]; 62 g ai/ha,90
same,Plant response rating: Surinam Grass,[1]; 125 g ai/ha,95
same,Plant response rating: Surinam Grass,[1]; 250 g ai/ha,95
same,Plant response rating: Sandbur,[2]; 31 g ai/ha,90
same,Plant response rating: Sandbur,[2]; 62 g ai/ha,90
same,Plant response rating: Sandbur,[2]; 125 g ai/ha,90
same,Plant response rating: Sandbur,[2]; 250 g ai/ha,95
same,Plant response rating: Ragweed,[3]; 31 g ai/ha,0
same,Plant response rating: Ragweed,[3]; 250 g ai/ha,0
same,Plant response rating: Lambsquarters,[4]; 31 g ai/ha,90
same,Plant response rating: Lambsquarters,[4]; 62 g ai/ha,90
same,Plant response rating: Lambsquarters,[4]; 125 g ai/ha,90
same,Plant response rating: Lambsquarters,[4]; 250 g ai/ha,90
same,"Plant response rating: Pigweed, Palmer",[5]; 31 g ai/ha,0
same,"Plant response rating: Pigweed, Palmer",[5]; 62 g ai/ha,10
same,"Plant response rating: Pigweed, Palmer",[5]; 125 g ai/ha,80
same,"Plant response rating: Pigweed, Palmer",[5]; 250 g ai/ha,90
same,Plant response rating: Soybean,[6]; 31 g ai/ha,0
same,Plant response rating: Soybean,[6]; 62 g ai/ha,0
same,Plant response rating: Soybean,[6]; 125 g ai/ha,0
same,Plant response rating: Soybean,[6]; 250 g ai/ha,0
same,Plant response rating: Horseweed,[7]; 31 g ai/ha,0
same,Plant response rating: Horseweed,[7]; 62 g ai/ha,90
same,Plant response rating: Horseweed,[7]; 125 g ai/ha,95
same,Plant response rating: Horseweed,[7]; 250 g ai/ha,95
same,Plant response rating: Velvetleaf,[8]; 31 g ai/ha,20
same,Plant response rating: Velvetleaf,[8]; 62 g ai/ha,35
same,Plant response rating: Velvetleaf,[8]; 125 g ai/ha,60
same,Plant response rating: Velvetleaf,[8]; 250 g ai/ha,40
same,Plant response rating: Corn,[9]; 31 g ai/ha,65
same,Plant response rating: Corn,[9]; 62 g ai/ha,70
same,Plant response rating: Corn,[9]; 125 g ai/ha,80
same,Plant response rating: Corn,[9]; 250 g ai/ha,80
same,Plant response rating: Kochia,[10]; 31 g ai/ha,85
same,Plant response rating: Kochia,[10]; 62 g ai/ha,90
same,Plant response rating: Kochia,[10]; 125 g ai/ha,90
same,Plant response rating: Kochia,[10]; 250 g ai/ha,95
same,"Plant response rating: Dayflower, VA",[11]; 31 g ai/ha,0
same,"Plant response rating: Dayflower, VA",[11]; 62 g ai/ha,0
same,"Plant response rating: Dayflower, VA",[11]; 125 g ai/ha,35
same,"Plant response rating: Dayflower, VA",[11]; 250 g ai/ha,65
same,"Plant response rating: Foxtail, Green",[12]; 31 g ai/ha,95
same,"Plant response rating: Foxtail, Green",[12]; 62 g ai/ha,95
same,"Plant response rating: Foxtail, Green",[12]; 125 g ai/ha,95
same,"Plant response rating: Foxtail, Green",[12]; 250 g ai/ha,98
same,Plant response rating: Barnyardgrass,[13]; 31 g ai/ha,95
same,Plant response rating: Barnyardgrass,[13]; 62 g ai/ha,95
same,Plant response rating: Barnyardgrass,[13]; 125 g ai/ha,98
same,Plant response rating: Barnyardgrass,[13]; 250 g ai/ha,98
same,"Plant response rating: Crabgrass, Large",[14]; 31 g ai/ha,98
same,"Plant response rating: Crabgrass, Large",[14]; 62 g ai/ha,98
same,"Plant response rating: Crabgrass, Large",[14]; 125 g ai/ha,98
same,"Plant response rating: Crabgrass, Large",[14]; 250 g ai/ha,98
same,"Plant response rating: Crabgrass, Brazil",[15]; 31 g ai/ha,95
same,"Plant response rating: Crabgrass, Brazil",[15]; 62 g ai/ha,95
same,"Plant response rating: Crabgrass, Brazil",[15]; 125 g ai/ha,98
same,"Plant response rating: Crabgrass, Brazil",[15]; 250 g ai/ha,98
same,Plant response rating: Waterhemp,[16]; 31 g ai/ha,25
same,Plant response rating: Waterhemp,[16]; 62 g ai/ha,80
same,Plant response rating: Waterhemp,[16]; 125 g ai/ha,70
same,Plant response rating: Waterhemp,[16]; 250 g ai/ha,80
same,Plant response rating: Goosegrass,[17]; 31 g ai/ha,50
same,Plant response rating: Goosegrass,[17]; 62 g ai/ha,80
same,Plant response rating: Goosegrass,[17]; 125 g ai/ha,90
same,Plant response rating: Goosegrass,[17]; 250 g ai/ha,95
same,"Plant response rating: Ryegrass, Italian",[18]; 31 g ai/ha,40
same,"Plant response rating: Ryegrass, Italian",[18]; 62 g ai/ha,65
same,"Plant response rating: Ryegrass, Italian",[18]; 125 g ai/ha,95
same,"Plant response rating: Ryegrass, Italian",[18]; 250 g ai/ha,95
same,Plant response rating: Field Bindweed,[19]; 31 g ai/ha,0
same,Plant response rating: Field Bindweed,[19]; 62 g ai/ha,75
same,Plant response rating: Field Bindweed,[19]; 125 g ai/ha,80
same,Plant response rating: Field Bindweed,[19]; 250 g ai/ha,70
same,"Plant response rating: Panicum, Fall",[20]; 31 g ai/ha,90
same,"Plant response rating: Panicum, Fall",[20]; 62 g ai/ha,90
same,"Plant response rating: Panicum, Fall",[20]; 125 g ai/ha,100
same,"Plant response rating: Panicum, Fall",[20]; 250 g ai/ha,90
same,Plant response rating: Arrowleaf Sida,[21]; 31 g ai/ha,35
same,Plant response rating: Arrowleaf Sida,[21]; 62 g ai/ha,65
same,Plant response rating: Arrowleaf Sida,[21]; 125 g ai/ha,80
same,Plant response rating: Arrowleaf Sida,[21]; 250 g ai/ha,90
